Here are results for 13 molecules from patent US8962859B2, “Spiro-amino-imidazo-fused heterocyclic compounds as beta-secretase modulators and methods of use” (Amgen Inc., priority 2011, dated 2015).

One test relates to gamma-secretase. As to conditions: cited from earlier work.
Test [1] has as its system Aβ 40 levels in cells stably expressing Amyloid Precursor Protein (APP). The experiment in a line: In vitro BACE cell-based assay (HEK cell assay), Aβ40 sandwich ELISA. The following applies: average IC50, inhibition of Aβ40 in conditioned medium after 24 h. The procedure:
The cell-based assay measures inhibition or reduction of Aβ40 in conditioned medium of test compound treated cells expressing amyloid precursor protein.
Cells stably expressing Amyloid Precursor Protein (APP) were plated at a density of 40K cells/well in 96 well plates (Costar). The cells were cultivated for 24 hours at 37° C. and 5% CO2 in DMEM supplemented with 10% FBS. The test compounds were then added to cells in 10-point dose response concentrations with the starting concentration being either 100 μM or 10 μM. The compounds were diluted from stock solutions in DMSO and the final DMSO concentration of the test compounds on cells was 0.1%. After 24 h of incubation with the test compounds the supernatant conditioned media was collected and the Aβ 40 levels were determined using a sandwich ELISA. The IC50 of the compound was calculated from the percent of control or percent inhibition of Aβ 40 as a function of the concentration of the test compound.
The sandwich ELISA to detect Aβ 40 was performed in 96 well microtiter plates, which were pre-treated with goat anti-rabbit IgG (Pierce). The capture and detecting antibody pair that were used to detect Aβ 40 from cell supernatants were affinity purified pAb40 (Biosource) and biotinylated 6E10 (Signet Labs Inc.), respectively.
Cellular supernatants were incubated with the capture antibody for 3 h at 4° C., followed by 3 wash steps in TBS-tween (0.05%). The detecting antibody incubation was for 2 h at 4° C., again followed by the wash steps as described previously. The final readout of the ELISA is Time-Resolved Fluorescence (counts per minute) using Delfia reagents Streptavidin-Europium and Enhancement solutions (Perkin Elmer) and the Victor 2 multilabel counter (Perkin Elmer).
(An ELISA detects its analyte on a solid surface through an enzyme-linked reagent.)

In the next test the target is BACE 1 (Homo sapiens (Human), UniProt P56817). The experiment in a line: In vitro enzymatic BACE FRET assay. As to conditions: average IC50; acetate buffer pH 4.2, enzyme 0.2 nM, FRET substrate 50 nM. In kind it is biochemical. The procedure:
In Vitro Enzymatic BACE FRET (Fluorescence Resonance Energy Transfer) Assay (Enzyme Assay Data in the Example Table I)
The assay buffer used in this screen is 0.05 M acetate, pH 4.2, 10% DMSO final, 100 uM genapol (which is a nonionic detergent, below its Critical Micelle Concentration). The Beta Secretase enzyme (0.2 nM) is pre-incubated for one hour with inhibitors, typically in about 1 uL of DMSO according to a serial dilution, are added thereto. This assay is effectively started by the addition of FRET substrate (50 nM) and the combination is incubated for one hour. The FRET assay is terminated with by addition of Tris buffer, which raises the pH to neutrality, and the fluorescence is determined. The FRET substrate is a peptide with commercially available fluorophore and quencher, on opposite sides of the BACE cleavage site. Proteolytic cleavage of the FRET substrate releases quenching of fluorescence (excitation 488 nm and […]).

BACE 1, sequence (P56817 46-501): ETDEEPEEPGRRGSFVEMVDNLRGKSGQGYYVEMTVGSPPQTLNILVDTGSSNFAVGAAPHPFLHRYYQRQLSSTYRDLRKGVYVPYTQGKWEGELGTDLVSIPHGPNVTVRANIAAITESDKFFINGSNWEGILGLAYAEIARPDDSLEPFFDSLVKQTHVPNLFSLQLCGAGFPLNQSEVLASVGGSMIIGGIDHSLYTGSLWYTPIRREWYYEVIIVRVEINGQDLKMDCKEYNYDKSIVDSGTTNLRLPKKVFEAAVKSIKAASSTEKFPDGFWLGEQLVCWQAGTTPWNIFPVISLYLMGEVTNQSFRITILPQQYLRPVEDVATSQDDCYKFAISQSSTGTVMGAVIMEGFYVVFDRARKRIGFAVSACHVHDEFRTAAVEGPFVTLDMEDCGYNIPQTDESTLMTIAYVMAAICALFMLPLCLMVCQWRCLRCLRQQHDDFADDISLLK

In the case of `NC(=O)[C@@H](CCC(F)(F)F)N(Cc1ccc(-c2ncon2)cc1F)S(=O)(=O)c1ccc(Cl)cc1` [BMS-708163], the “notch selectivity (amyloid-beta precursor protein selective)” value with gamma-secretase was 193 ×.
Usually IC50 stands for the concentration at which inhibition is half-maximal. In the case of `NC1=N[C@]2(c3cc(-c4cccnc4F)ccc3Oc3c(F)cc(-c4ccnc(F)c4)cc32)c2nccn21` [Example 8A, (7S)-4′-fluoro-7′-(2-fluoro-3-pyridinyl)-2′-(2-fluoro-4-pyridinyl)spiro[imidazo[1,5-a]imidazole-7,9′-xanthen]-5-amine], the IC50 in test [1] (Homo sapiens, HEK293) was 138 nM; on BACE 1, 10 nM.
In the same order, the values of `NC1=N[C@@]2(c3cc(-c4cccnc4F)ccc3Oc3c(F)cc(-c4ccnc(F)c4)cc32)c2nccn21` [Example 8B, (7R)-4′-fluoro-7′-(2-fluoro-3-pyridinyl)-2′-(2-fluoro-4-pyridinyl)spiro[imidazo[1,5-a]imidazole-7,9′-xanthen]-5-amine] are 86 nM and 0.3 nM.
As to `NC1=N[C@]2(c3cc(-c4cccnc4F)ccc3Oc3c(F)cc(N4CCOCC4)cc32)c2nccn21` [Example 9A, (7S)-4′-fluoro-7′-(2-fluoro-3-pyridinyl)-2′-(4-morpholinyl)spiro[imidazo[1,5-a]imidazole-7,9′-xanthen]-5-amine], the 50% inhibitory concentration (IC50) in test [1] (Homo sapiens, HEK293) is 3970 nM; at BACE 1, 189 nM.
Take `NC1=N[C@@]2(c3cc(-c4cccnc4F)ccc3Oc3c(F)cc(N4CCOCC4)cc32)c2nccn21` [Example 9B, (7R)-4′-fluoro-7′-(2-fluoro-3-pyridinyl)-2′-(4-morpholinyl)spiro[imidazo[1,5-a]imidazole-7,9′-xanthen]-5-amine]: the IC50 came to 31 nM in test [1] (Homo sapiens, HEK293) and 0.7 nM on BACE 1.
In the same order, the values of `COc1cc(F)c2c(c1)[C@@]1(N=C(N)N3CCCN=C31)c1cc(-c3cccnc3F)ccc1O2` [Example 10, (7S)-4′-fluoro-7′-(2-fluoropyridin-3-yl)-2′-methoxy-3,4-dihydro-2H-spiro[imidazo[1,5-a]pyrimidine-8,9′-xanthen]-6-amine (7R)-4′-fluoro-7′-(2-fluoropyridin-3-yl)-2′-methoxy-3,4-dihydro-2H-spiro[imidazo[1,5-a]pyrimidine-8,9′-xanthen]-6-amine] are 78 nM and 22 nM.
The matching figures for `COc1cc(F)c2c(c1)C1(N=C(N)n3ccnc31)c1cc(-c3cccnc3F)ccc1O2` (stereo not shown) [Example 11, 4′-fluoro-7′-(2-fluoro-3-pyridinyl)-2′-methoxyspiro[imidazo[1,5-a]imidazole-7,9′-xanthen]-5-amine]: 58 nM and 9 nM.
In the same order, the values of `NC1=N[C@@]2(c3cc(-c4cccnc4F)ccc3Oc3c(F)cc(C4=CCCOC4)cc32)c2nccn21` [Example 12, (7R)-2′-(5,6-dihydro-2H-pyran-3-yl)-4′-fluoro-7′-(2-fluoro-3-pyridinyl)spiro[imidazo[1,5-a]imidazole-7,9′-xanthen]-5-amine] are 173 nM and 23 nM.
For `NC1=N[C@]2(c3cc(-c4cccnc4F)ccc3Oc3c(F)cc(C4=CCCOC4)cc32)c2nccn21` [Example 13, (7S)-2′-(5,6-dihydro-2H-pyran-3-yl)-4′-fluoro-7′-(2-fluoro-3-pyridinyl)spiro[imidazo[1,5-a]imidazole-7,9′-xanthen]-5-amine], the IC50 in test [1] (Homo sapiens, HEK293) was 29 nM; at BACE 1, 0.4 nM.
The matching figures for `Cc1ccc(-c2cc(F)c3c(c2)[C@]2(N=C(N)n4ccnc42)c2cc(-c4cccnc4F)ccc2O3)cc1` [Example 14, (7R)-4′-fluoro-7′-(2-fluoro-3-pyridinyl)-2′-(4-methylphenyl)spiro[imidazo[1,5-a]imidazole-7,9′-xanthen]-5-amine]: 4160 nM and 114 nM.
In the same order, the values of `Cc1ccc(-c2cc(F)c3c(c2)[C@@]2(N=C(N)n4ccnc42)c2cc(-c4cccnc4F)ccc2O3)cc1` [Example 15, (7S)-4′-fluoro-7′-(2-fluoro-3-pyridinyl)-2′-(4-methylphenyl)spiro[imidazo[1,5-a]imidazole-7,9′-xanthen]-5-amine] are 28 nM and 0.4 nM.
For the molecule `NC1=N[C@]2(c3cc(-c4cccnc4F)ccc3Oc3c(F)cc(N4CCC(F)(F)CC4)cc32)c2nccn21` [Example 17, (7R)-2′-(4,4-difluoro-1-piperidinyl)-4′-fluoro-7′-(2-fluoro-3-pyridinyl)spiro[imidazo[1,5-a]imidazole-7,9′-xanthen]-5-amine, (7S)-2′-(4,4-difluoro-1-piperidinyl)-4′-fluoro-7′-(2-fluoro-3-pyridinyl)spiro[imidazo[1,5-a]imidazole-7,9′-xanthen]-5-amine], the figures for the IC50 (in test [1]; at BACE 1) were 51 nM and 0.7 nM, respectively.
As to “(7R)-2′-(3,6-dihydro-2H-pyran-4-yl)-4′-fluoro-7′-(2-fluoro-3-pyridinyl)spiro[imidazo[1,5-a]imidazole-7,9′-xanthen]-5-amine, (7S)-2′-(3,6-dihydro-2H-pyran-4-yl)-4′-fluoro-7′-(2-fluoro-3-pyridinyl)spiro[imidazo[1,5-a]imidazole-7,9′-xanthen]-5-amine [Example 16]”, the IC50 in test [1] was found to be 39 nM; on BACE 1 it was 0.6 nM.
